From patent US10508077B2 (FORMA Therapeutics, Inc., priority 2015, dated 2019) come the findings set out here.

In the test the target is T1, Full length human recombinant HDAC8 protein (Homo sapiens, UniProt Q9BY41).
T1 construct: Full length human recombinant HDAC8 protein was expressed in baculoviral system; made in house
T1 sequence (Q9BY41 1-377): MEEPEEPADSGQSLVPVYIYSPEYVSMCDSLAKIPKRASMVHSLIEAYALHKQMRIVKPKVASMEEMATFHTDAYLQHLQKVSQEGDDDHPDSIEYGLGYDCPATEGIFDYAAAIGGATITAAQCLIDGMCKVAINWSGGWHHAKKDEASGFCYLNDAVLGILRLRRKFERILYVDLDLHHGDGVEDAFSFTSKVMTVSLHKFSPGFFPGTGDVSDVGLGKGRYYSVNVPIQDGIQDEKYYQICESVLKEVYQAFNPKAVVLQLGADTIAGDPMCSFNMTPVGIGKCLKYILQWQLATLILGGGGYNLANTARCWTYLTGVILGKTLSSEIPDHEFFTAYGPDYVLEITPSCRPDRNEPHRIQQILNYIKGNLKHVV
The test can be described thus: In vitro histone deacetylase assay: enzymatic HDAC8 assay, electrophoretic mobility shift. The format is biochemical. The conditions noted are these: substrate RHKK(Ac)-NH2, 1 nM enzyme, compounds listed under IC50 range headings. The method, then:
The enzymatic HDAC8 assay was performed using electrophoretic mobility shift assay. Full length human recombinant HDAC8 protein was expressed in baculoviral system and purified by affinity chromatography. The enzymatic reactions were assembled in 384 well plates in a total volume of 25 μL in a reaction buffer composing: 100 mM HEPES, pH7.5, 25 mM KC, 0.1% bovine serum albumin, 0.01% Triton X-100, 1% DMSO (from compounds) 2 μM of the fluorescently labeled peptide substrate and enzyme. The enzyme was added at a final concentration of 1 nM. The peptide substrate RHKK(Ac)-NH2 was used. The compounds were tested at 12 concentrations spaced by 3× dilution intervals. Negative control samples (0%-inhibition in the absence of inhibitor) and positive control samples (100%-inhibition) were assembled in replicates of four in each assay plate. The reactions were incubated at 25° C. and quenched by the addition of 45 μL of termination buffer (100 mM HEPES, pH 7.5, 0.01% Triton X-100, 0.05% SDS).
The terminated assay plates were analyzed on LabChip® 3000 microfluidic electrophoresis instrument (Perkin Elmer/Caliper Life Sciences). The fluorescence intensity of the electrophoretically separated de-acetylated product and substrate peptide was measured. Activity in each sample was determined as the product to sum ratio (PSR): P/(S+P), where P is the peak height of the product peptide and S is the peak height of the substrate peptide. Percent inhibition (Pinh) is determined using the following equation: Pinh=(PSR0%−PSRinh)/(PSR0%−PSR100%)*100, where PSRinh is the product sum ratio in the presence of inhibitor, PSR0% is the average product sum ration in the absence of inhibitor and PSR 100% is the average product sum ratio in 100%-inhibition control samples. The IC50 values of inhibitors were determined by fitting the %-inhibition curves with 4 parameter dose-response model using XLfit 4 software. Ranges of IC50 values for compounds of the invention are disclosed in Table 26.
For orientation: A gel shift assay detects complexes by their altered migration in electrophoresis.
The term IC50 denotes the concentration needed to halve the response being measured. In the case of `COc1ccc(OC)c(S(=O)(=O)N2CCN(c3ccccc3/C=C/C(=O)NO)CC2)c1` [Example I-34], the half-inhibitory concentration (IC50) fell in the range of 1000 to 10000 nM.
As for `O=C(/C=C/c1ccccc1N1CCN(C(=O)C2(c3cnccn3)CC2)CC1)NO` [Example I-35, (2E)-N-hydroxy-3-(2-{4-[1-(pyrazin-2-yl)cyclopropanecarbonyl]piperazin-1-yl}phenyl)prop-2-enamide], the IC50 was 1000 to 10000 nM.
With `O=C(/C=C/c1ccccc1N1CCN(C(=O)C2(c3ccccc3)CC2)CC1)NO` [Example I-36, (E)-N-hydroxy-3-(2-(4-(1-phenylcyclopropane-1-carbonyl)piperazin-1-yl)phenyl)acrylamide], the 50% inhibitory concentration (IC50) is 1000 to 10000 nM.
The figure for `O=C(/C=C/c1ccccc1N1CCN(C(=O)C2(c3ccccc3)CCC2)CC1)NO` [Example I-37, (E)-N-hydroxy-3-(2-(4-(1-phenylcyclobutane-1-carbonyl)piperazin-1-yl)phenyl)acrylamide] is 1000 to 10000 nM; for `O=C(/C=C/c1ccccc1NC(=O)c1nccn1-c1ccccc1C(F)(F)F)NO` [Example I-38, (E)-N-(2-(3-(hydroxyamino)-3-oxoprop-1-en-1-yl)phenyl)-1-(2-(trifluoromethyl)phenyl)-1H-imidazole-2-carboxamide] it is 1000 to 10000 nM.
The figure for `O=C(/C=C/c1ccccc1NCc1nc2ccccc2[nH]1)NO` [Example I-39, (E)-3-(2-(((1H-benzo[d]imidazol-2-yl)methyl)amino)phenyl)-N-hydroxyacrylamide] is less than 1000 nM; for `CC(=O)Nc1cccc(C(=O)Nc2ccccc2/C=C/C(=O)NO)c1` [Example I-42, (E)-3-acetamido-N-(2-(3-(hydroxyamino)-3-oxoprop-1-en-1-yl)phenyl)benazmide] it is less than 1000 nM; for `O=C(/C=C/c1ccccc1NCc1cccc(C(F)(F)F)c1)NO` [Example I-46, (E)-N-hydroxy-3-(2-((3-(trifluoromethyl)benzyl)amino)phenyl)acrylamide] it is less than 1000 nM.
Regarding `CC(C)(C)OC(=O)N1CCC2(CCC(C(=O)Nc3ccccc3/C=C/C(=O)NO)CC2)CC1` [Example I-47, tert-butyl-(E)-9-((2-(3-(hydroxyamino)-3-oxoprop-1-en-1-yl)phenyl)carbamoyl)-3-azaspiro[5.4]undecane-3-carboxylate], the IC50 is less than 1000 nM.
The figure for `CC(C)(C)OC(=O)N1CCC2(CC1)CCN(c1ccccc1/C=C/C(=O)NO)CC2` [Example I-50, tert-butyl-(E)-9-(2-(3-(hydroxyamino)-3-oxoprop-1-en-1-yl)phenyl)-3,9-diazaspiro[5.5]undecane-3-carboxylate] is less than 1000 nM.
On to `N#Cc1ccc2nc(CNc3ccccc3/C=C/C(=O)NO)[nH]c2c1` [Example I-51], for which the IC50 is less than 1000 nM.
The figure for `O=C(/C=C/c1ccccc1N1CCC2(CCNCC2)CC1)NO` [Example I-52, (E)-3-(2-(3,9-diazaspiro[5.5]undecan-3-yl)phenyl)-N-hydroxyacrylamide 2,2,2-trifluoroacetate] is less than 1000 nM; for `NC(=O)CCc1cccc(CNc2ccccc2/C=C/C(=O)NO)c1` [Example I-53, (E)-3-(2-((3-(3-amino-3-oxopropyl)benzyl)amino)phenyl)-N-hydroxyacrylamide] it is less than 1000 nM; for `O=C(/C=C/c1ccccc1NCC1CCCCC1)NO` [Example I-55, (E)-3-(2-((cyclohexylmethyl)amino)phenyl)-N-hydroxyacrylamide] it is less than 1000 nM.
Regarding `O=C(/C=C/c1ccccc1NC(=O)C1CCCCC1)NO` [Example I-56, (E)-N-(2-(3-(hydroxyamino)-3-oxoprop-1-en-1-yl)phenyl)cyclohexanecarboxamide], the concentration for half-maximal inhibition (IC50) was less than 1000 nM.
As for `O=C(/C=C/c1ccccc1N1CCCCC1)NO` [Example I-57, (E)-N-hydroxy-3-(2-(piperidin-1-yl)phenyl)acrylamide], the figure is less than 1000 nM; as for `CC(C)(C)OC(=O)N1CCN(c2ccccc2/C=C/C(=O)NO)CC1` [Example I-58, tert-butyl (E)-4-(2-(3-(hydroxyamino)-3-oxoprop-1-en-1-yl)phenyl)piperazine-1-carboxylate], less than 1000 nM.
On to `O=C(/C=C/c1ccccc1N1CCNCC1)NO` [Example I-59, (E)-N-hydroxy-3-(2-(piperazin-1-yl)phenyl)acrylamide 2,2,2-trifluoroacetate], for which the concentration for half-maximal inhibition (IC50) was less than 1000 nM.
As to `CC(C)(C)OC(=O)NC1CCN(c2ccccc2/C=C/C(=O)NO)CC1` [Example I-60, tert-butyl (E)-(1-(2-(3-(hydroxyamino)-3-oxoprop-1-en-1-yl)phenyl)piperidin-4-yl)carbamate], the IC50 is less than 1000 nM.
Consider `CC(C(=O)Nc1ccccc1/C=C/C(=O)NO)N1CCS(=O)(=O)CC1` (stereo not shown) [Example I-63, (E)-3-(2-(2-(1,1-dioxidothiomorpholino)propanamide)phenyl)-N-hydroxyacrylamide], for which the half-inhibitory concentration (IC50) was less than 1000 nM.
As for `O=C(/C=C/c1ccccc1NC(=O)C1(c2ccccc2)CC1)NO` [Example I-64, (E)-N-(2-(3-(hydroxyamino)-3-oxoprop-1-en-1-yl)phenyl)-1-phenylcyclopropane-1-carboxamide], the figure is less than 1000 nM; as for `O=C(/C=C/c1ccccc1NC(=O)c1cc2n(n1)CCC2)NO` [Example I-74, (E)-N-(2-(3-(hydroxyamino)-3-oxoprop-1-en-1-yl)phenyl)-5,6-dihydro-4H-pyrrolo[1,2-b]pyrazole-2-carboxamide], less than 1000 nM.
As for `Cn1nc(C(F)(F)F)cc1-c1ccc(C(=O)Nc2ccccc2/C=C/C(=O)NO)s1` [Example I-78, (E)-N-(2-(3-(hydroxyamino)-3-oxoprop-1-en-1-yl)phenyl)-5-(1-methyl-3-(trifluoromethyl)-1H-pyrazol-5-yl)thiophene-2-carboxamide], the figure is less than 1000 nM; as for `Cc1cc(C(=O)Nc2ccccc2/C=C/C(=O)NO)n(C)n1` [Example I-80, (E)-N-(2-(3-(hydroxyamino)-3-oxoprop-1-en-1-yl)phenyl)-1,3-dimethyl-1H-pyrazole-5-carboxamide], less than 1000 nM; as for `O=C(/C=C/c1ccccc1NC(=O)c1cc2ccccn2n1)NO` [Example I-82, (E)-N-(2-(3-(hydroxyamino)-3-oxoprop-1-en-1-yl)phenyl)pyrazolo[1,5-a]pyridine-2-carboxamide], less than 1000 nM.
The figure for `O=C(/C=C/c1ccccc1NCc1ccc(Cl)cc1)NO` [Example I-86, (E)-3-(2-((4-chlorobenzyl)amino)phenyl)-N-hydroxyacrylamide] is less than 1000 nM; for `CC(C)c1ccc(CNc2ccccc2/C=C/C(=O)NO)nc1` [Example I-87, (E)-N-hydroxy-3-(2-(((5-isopropylpyridin-2-yl)methyl)amino)phenyl)acrylamide] it is less than 1000 nM; for `O=C(/C=C/c1ccccc1NCc1ccnc2ccccc12)NO` [Example I-88, (E)-N-hydroxy-3-(2-((quinolin-4-ylmethyl)amino)phenyl)acrylamide] it is less than 1000 nM.
On to `COc1cncc(CNc2ccccc2/C=C/C(=O)NO)c1` [Example I-90], for which the half-inhibitory concentration (IC50) was less than 1000 nM.
As for `O=C(/C=C/c1ccccc1NCc1ccc(-c2ccccn2)cc1)NO` [Example I-92, (E)-N-hydroxy-3-(2-((4-(pyridin-2-yl)benzyl)amino)phenyl)acrylamide], the figure is less than 1000 nM; as for `O=C(/C=C/c1ccccc1NCc1ccc(-c2ccccc2)nc1)NO` [Example I-99, (E)-N-hydroxy-3-(2-(((6-phenylpyridin-3-yl)methyl)amino)phenyl)acrylamide], less than 1000 nM.
As to `O=C(/C=C/c1ccccc1NCc1cc2cccnc2[nH]1)NO` [Example I-102, (E)-3-(2-(((1H-pyrrolo[2,3-b]pyridin-2-yl)methyl)amino)phenyl)-N-hydroxyacrylamide], the concentration for half-maximal inhibition (IC50) is less than 1000 nM.
As for `CC(C)Nc1ncc(CNc2ccccc2/C=C/C(=O)NO)cn1` [Example I-105, (E)-N-hydroxy-3-(2-(((2-(isopropylamino)pyrimidin-5-yl)methyl)amino)phenyl)acrylamide], the figure is less than 1000 nM; as for `O=C(/C=C/c1ccccc1NCC1CCOC1)NO` (stereo not shown) [Example I-106, (E)-N-hydroxy-3-(2-(((tetrahydrofuran-3-yl)methyl)amino)phenyl)acrylamide], less than 1000 nM.
